Test: molar heat capacity at constant pressure
Conditions: 101.33 kPa, Crystal, PPMS-Quantum Design

[O-][Si]([O-])([O-])[O-].[Th+4] [thorium silicate]
Conditions	molar heat capacity at constant pressure [J/K/mol]
1.885 K	0.001439
1.946 K	0.001553
2.013 K	0.001656
2.084 K	0.0018
2.158 K	0.001932
2.234 K	0.002074
2.319 K	0.002253
2.399 K	0.002416
2.484 K	0.002584
2.572 K	0.002792
2.66 K	0.003006
2.749 K	0.003244
2.842 K	0.0035
2.936 K	0.003794
3.038 K	0.004121
3.136 K	0.004482
3.243 K	0.004896
3.353 K	0.005336
3.463 K	0.005793
3.573 K	0.006259
3.69 K	0.00688
3.812 K	0.00739
3.935 K	0.007954
4.063 K	0.008647
4.198 K	0.009528
4.338 K	0.01046
4.483 K	0.01148
4.637 K	0.0127
4.798 K	0.01391
4.968 K	0.01533
5 K	0.01646
5.151 K	0.01714
5.343 K	0.01921
5.54 K	0.02152
5.744 K	0.02438
5.956 K	0.02725
6.175 K	0.03065
6.401 K	0.03406
6.631 K	0.03824
6.869 K	0.04281
7.113 K	0.04768
7.362 K	0.05303
7.62 K	0.05923
7.885 K	0.06632
8.158 K	0.07389
8.441 K	0.08256
8.734 K	0.09321
9.036 K	0.1048
9.352 K	0.1182
9.685 K	0.1338
10 K	0.1498
10.02 K	0.1509
10.37 K	0.1707
10.73 K	0.1934
11.1 K	0.2188
11.48 K	0.2483
11.88 K	0.2819
12.29 K	0.32
12.72 K	0.3633
13.16 K	0.4129
13.61 K	0.4682
14.09 K	0.5314
14.58 K	0.603
15.08 K	0.6838
15.61 K	0.7739
16.14 K	0.8747
16.71 K	0.9903
17.29 K	1.117
17.89 K	1.255
18.52 K	1.411
19.15 K	1.576
19.81 K	1.761
20 K	1.81
20.51 K	1.965
21.22 K	2.185
21.97 K	2.428
22.7 K	2.683
23.5 K	2.973
24.27 K	3.257
25.16 K	3.599
25.98 K	3.941
26.91 K	4.308
27.88 K	4.727
28.82 K	5.152
29.81 K	5.6
30 K	5.69
30.85 K	6.085
31.93 K	6.6
33.08 K	7.146
34.36 K	7.779
35.54 K	8.309
36.76 K	8.996
38.05 K	9.736
39.38 K	10.24
40 K	10.68
40.71 K	10.97
42.03 K	11.71
43.53 K	12.5
45.03 K	13.28
46.58 K	14.12
48.19 K	15
49.84 K	15.88
50 K	16.04
51.54 K	16.84
53.32 K	17.83
55.17 K	18.86
57.08 K	19.9
59.06 K	20.99
61.1 K	22.12
63.21 K	23.21
65.39 K	24.39
67.65 K	25.63
69.99 K	26.91
72.42 K	28.19
74.93 K	29.51
77.52 K	30.84
80.21 K	32.24
82.99 K	33.67
85.77 K	35.08
88.74 K	36.63
91.81 K	38.21
94.98 K	39.83
98.28 K	41.48
100 K	42.28
101.68 K	43.16
105.2 K	44.86
108.84 K	46.57
112.61 K	48.32
116.51 K	50.09
120.55 K	51.87
124.73 K	53.61
129.04 K	55.37
133.51 K	57.22
138.13 K	59.1
142.91 K	60.93
147.86 K	62.82
150 K	63.64
152.97 K	64.6
158.25 K	66.54
163.72 K	68.4
169.39 K	70.23
175.25 K	72.2
181.32 K	74.15
187.59 K	75.84
194.08 K	77.96
200 K	79.46
200.79 K	79.76
207.73 K	81.56
214.93 K	83.34
222.36 K	85.17
230.05 K	86.81
238.01 K	88.63
246.25 K	90.44
250 K	91.07
254.74 K	92.01
263.54 K	93.59
272.64 K	95.02
282.08 K	96.5
291.84 K	98.01
298.15 K	98.68
300 K	98.88
302.26 K	99.17

From the NIST ThermoML archive (doi:10.1016/j.jct.2008.02.001)
